Assay results from US20250230470A1, “SAFETY SWITCHES TO CONTROL IN VITRO AND IN VIVO PROLIFERATION OF CELL THERAPY PRODUCTS” (Sana Biotechnology, Inc., priority 2024, published 2025).

Assays:
Format in all cases: cell-based
[1] = test system: CDA_CDK1 pancreatic progenitors; test: Ki67 staining by flow cytometry of pancreatic progenitor cells untreated or treated with 5-FC; settings: CDA_CDK1 pancreatic progenitor culture; 100 μM 5-FC
Method: (§1) In order to test whether the CDA-induced killing was specific to proliferative cells, pancreatic progenitor cells, untreated or treated with 100 μM of 5-FC, were stained for proliferation marker Ki67 and analyzed by flow cytometry.

[2] = test system: CDA_AURKB pancreatic progenitors; test: as above; settings: 100 μM 5-FC
Method: as §1

[3] = test system: CDA_AAVS1 pancreatic progenitors; test: as above; settings: 100 μM 5-FC
Method: as §1

[4] = test system: CDA_CDK1 iPSCs and pancreatic progenitors; test: Cell viability after 5-FC (CDA kill switch) in directed differentiation
Method: (§2) To validate iCaspase 9 and cytosine deaminase (CDA) kill switch function in vitro, undifferentiated iPSCs and differentiated pancreatic progenitors with either iC9 or CDA knocked into the AURKB or CDK1 loci were tested for selective killing of pluripotent and proliferative cells in a directed differentiation into beta islet cells.
(§3) The kill switch function of CDA, which is inherently specific to proliferative cells, at the AURKB and CDK1 loci was tested in pancreatic progenitor cells generated by directed differentiation from CDA_AURKB iPSCs or CDA_CDK1 iPSCs. […] The partial loss-of-function was similarly observed in the control cell lines with CDA knocked into the AAVS1 locus.

[5] = test system: CDA_AAVS1 iPSCs and pancreatic progenitors; test: as above; settings: 100 μM 5-FC
Method: as §2, §3

[6] = test system: control iPSC (dko) and day 12 pancreatic progenitor cells; test: as above; settings: increasing concentrations of 5-FC
Method: as §2, §3

[7] = test system: CDA_AURKB iPSCs and pancreatic progenitors; test: as above
Method: as §2, §3

## Nc1nc(=O)[nH]cc1F [5-FC, 5-fluorocytosine]
[1]
  clearance of Ki-67 expressing cells: clearance of most of the proliferative cells
[2]
  clearance of Ki-67 expressing cells: a large subset of Ki-67 expressing cells was cleared
[3]
  clearance of Ki-67 expressing cells: clearance of most of the proliferative cells
[4]; CDA_CDK1 iPSCs, 100 μM 5-FC
  cell viability: complete cell death
[4]; CDA_CDK1 pancreatic progenitors, day 12 of differentiation
  cell killing: partially lost CDA function
[5]; CDA_AAVS1 iPSCs
  cell viability: no viable CDA_AAVS1 iPSCs
[5]; iPSC, read-out: cells remained viable, CDA_AAVS1 pancreatic progenitors
  viability at 100 µM: 50%
[6]
  cell viability: maintained viability
[7]; CDA-AURKB pancreatic progenitors, day 12 of differentiation
  cell killing: partial loss of CDA function
[7]; CDA_AURKB iPSCs
  5-FC concentration at which viability began to decrease: about 5 μM
[7]; CDA_AURKB iPSCs, about 100 μM 5-FC
  cell viability: complete cell death
